Common to all, as to assay type: in vivo, rat
Experiment [1] concerns IDDM SD rats. Kind of experiment: Antihyperglycemic effect in IDDM SD rats (STZ-induced). To be noted: 90 min after drug feeding. The protocol:
Resveratrol was first dissolved in DMS0 and diluted to 0.05 mg, 0.1 mg and 0.5 mg per ml wit normal saline. Animals were fed with desired amounts of drug solutions though tubing from the mouth into the stomach. Male rats were fasted for […] and anesthetized by intraperitoneal injection of pentobarbital at 30 mg/kg body weight. Animals were then injected with freshly prepared streptozotocin (STZ) solution at 65 mg/kg body weight intravenously. Three days later, blood sugar was measured. Animals with blood sugar levels above 400 mg/dl and symptoms of polyphagia, polyuria and polydipsia are classified as being induced to IDDM. Normal, IDDM, and NIDDM SD rats were fasted for 8 hrs and anesthetized by pentobarbital (30 mg/kg, ip). Animals were fed with different dosages of resveratrol (0.05 mg, 0.1 mg, or 0.5 mg per kg body weight), and blood samples were then collected from femoral vein at the time points 0, 60, 90, and 120 min. Ten μl plasma was mixed with 1 ml glucose kit reagent and incubated at 37° C. for 10 min. The blood sugar level was determined as described. Data were expressed as mean±standard error (S.E.). […] IDDM SD rats were fed with resveratrol at 0.05 mg, 0.1 mg, or 0.5 mg per kg body weight and the blood sugar was measured at 90 min after drug feeding.

The subject of experiment [2] is SD rats injected with insulin. Description: Development of insulin resistance and body weight increase in insulin-injected SD rats. On the procedure:
A. Insulin Resistance: Male SD rats were intraperitoneally injected with insulin (Monotard®HM; Novo Nordisk, Bagsvaerd, Denmark, 0.5 IU/kg, tid) for 2 weeks. The development of insulin resistance is confirmed by a tolbutamide test (11). Male SD rats were intraperitoneally injected with insulin at 0.5 IU/kg, tid with or without resveratrol feeding (0.5 mg/kg BW, bid) Animals without resveratrol feeding started to develop insulin resistance on day 16.5±1.5. In contrast, development of insulin resistance in the resveratrol-fed animals was delayed till 23.5±1.5 days. In addition, resveratrol reduced the body weight increase by 6% compared with the untreated insulin-resistant animals (FIG. 6)

For experiment [3], the system named is NIDDM insulin-resistant SD rats. Kind of experiment: Antihyperglycemic effect in NIDDM insulin-resistant SD rats (insulin-induced). The protocol: Resveratrol was first dissolved in DMS0 and diluted to 0.05 mg, 0.1 mg and 0.5 mg per ml wit normal saline. Animals were fed with desired amounts of drug solutions though tubing from the mouth into the stomach. A. Insulin Resistance: Male SD rats were intraperitoneally injected with insulin (Monotard®HM; Novo Nordisk, Bagsvaerd, Denmark, 0.5 IU/kg, tid) for 2 weeks. The development of insulin resistance is confirmed by a tolbutamide test (11). Normal, IDDM, and NIDDM SD rats were fasted for 8 hrs and anesthetized by pentobarbital (30 mg/kg, ip). Animals were fed with different dosages of resveratrol (0.05 mg, 0.1 mg, or 0.5 mg per kg body weight), and blood samples were then collected from femoral vein at the time points 0, 60, 90, and 120 min. Ten μl plasma was mixed with 1 ml glucose kit reagent and incubated at 37° C. for 10 min. The blood sugar level was determined as described. […]. Data were expressed as mean±standard error (S.E.). Statistical analysis was performed using ANOVA (analysis of variance) followed by Dunnett test, and the significant difference was set at P<0.05. NIDDM rats were fed with resveratrol and blood sugar was then measured as described.

Experiment [4] deals with NIDDM SD rats. Description: Antihyperglycemic effect in NIDDM SD rats (nicotinamide/STZ-induced). Particulars: 0.1 mg/kg oral. On the procedure: Resveratrol was first dissolved in DMS0 and diluted to 0.05 mg, 0.1 mg and 0.5 mg per ml wit normal saline. Animals were fed with desired amounts of drug solutions though tubing from the mouth into the stomach. B. NIDDM: Male SD rats were fasted for 48 hrs and anesthetized by intraperitoneal injection of pentobarbital at 30 mg/kg body weight. Animals were then injected with nicotinamide (100 mg/kg, ip) and streptozotocin (65 mg/kg, iv). Four weeks later, plasma glucose concentration was determined by the glucose oxidase method (Chemistry Analyzer; Autoanalyzer Quik-Lab., Ames, Spain). Animals with fasting blood sugar levels around 200 mg/dl and the development of an obese phenotype are classified as being induced to NIDDM. Normal, IDDM, and NIDDM SD rats were fasted for 8 hrs and anesthetized by pentobarbital (30 mg/kg, ip). Animals were fed with different dosages of resveratrol (0.05 mg, 0.1 mg, or 0.5 mg per kg body weight), and blood samples were then collected from femoral vein at the time points 0, 60, 90, and 120 min. Ten μl plasma was mixed with 1 ml glucose kit reagent and incubated at 37° C. for 10 min. The blood sugar level was determined as described. Data were expressed as mean±standard error (S.E.). […] NIDDM rats were fed with resveratrol and blood sugar was then measured as described.

The subject of experiment [5] is normal SD rats. Kind of experiment: Hypoglycemic effect in normal SD rats (blood sugar). Particulars: for reduction of blood sugar: normal SD rats, 90 min after drug feeding. On the procedure:
Eight week-old Sprague Dawley (SD) rats (body weight from 200 gm to 250 gm) were maintained in the Animal Center of the Chang (Jung Memorial Hospital, under an ambient temperature of 25±1° C. and a light-dark period of 12 hrs. Animals were fed with normal chow and water. Resveratrol was first dissolved in DMS0 and diluted to 0.05 mg, 0.1 mg and 0.5 mg per ml wit normal saline. Animals were fed with desired amounts of drug solutions though tubing from the mouth into the stomach. Normal, IDDM, and NIDDM SD rats were fasted for 8 hrs and anesthetized by pentobarbital (30 mg/kg, ip). Animals were fed with different dosages of resveratrol (0.05 mg, 0.1 mg, or 0.5 mg per kg body weight), and blood samples were then collected from femoral vein at the time points 0, 60, 90, and 120 min. Ten μl plasma was mixed with 1 ml glucose kit reagent and incubated at 37° C. for 10 min. The blood sugar level was determined as described. […]. Data were expressed as mean±standard error (S.E.). Statistical analysis was performed using ANOVA (analysis of variance) followed by Dunnett test, and the significant difference was set at P<0.05. Male SD rats were fed with resveratrol at 0.05 mg, 0.1 mg, or 0.5 mg per kg body weight and plasma glucose level was measured at 90 min after drug feeding.

Consider `Oc1ccc(C=Cc2cc(O)cc(O)c2)cc1` [resveratrol], for which the “reduction of blood sugar” value in experiment [1] (0.1 mg/kg oral) was determined as 21.00±5.84%; in experiment [1] (0.5 mg/kg oral), 23.00±1.89%; in experiment [3] (NIDDM insulin-resistant SD rats, 0.5 mg/kg oral, 90 min after drug feeding) it was 32.1±1.62%; in experiment [4], 28.3±1.67%; in experiment [5] (0.1 mg/kg oral), 25.72±4.03%; in experiment [5] (0.5 mg/kg oral) it was 35.53±2.0%. The “time to development of insulin resistance” value in experiment [2] (insulin 0.5 IU/kg ip tid with resveratrol feeding 0.5 mg/kg BW bid, without resveratrol day 16.5±1.5) was found to be 23.5 ± 1.5 days. For the same compound, the “reduction of body weight increase compared with untreated insulin-resistant animals” value in experiment [2] (insulin-resistant SD rats, resveratrol 0.5 mg/kg BW bid) turned out to be 6%. For the same compound, the “hypoglycemic effect, dose dependence” value in experiment [3] (NIDDM insulin-resistant rats, oral) is listed as “dose-dependent hypoglycemic effect”. In addition, the “blood sugar reduction, dose dependence” value in experiment [5] (normal SD rats, 0.05, 0.1, 0.5 mg/kg oral, 90 min) is listed as “dose-dependent manner”.

The values above are taken from patent publication US7709539B2, “Therapeutic use of resveratrol for hyperglycemia” (Chang Gung University, priority 2004, dated 2010).
